From ChEMBL document CHEMBL1201862, “PubChem BioAssay data set” (2004)
Activity calls are given as the source filed them.

Tests used:
[1] = biological target: T1, Delta-type opioid receptor (Homo sapiens, UniProt P41143); assay: HTS Image-Based Screen for Antagonists of the DOR Receptor. [Related pubchem assays (depositor defined):AID1777, AID1785, AID1786, AID2133]; assay type: functional
[2] = biological target: T2, Kappa-type opioid receptor (Homo sapiens, UniProt P41145); assay: KOR antagonists by imaging, SAR follow-up, image-based (AID 2348); assay type: functional
[3] = biological target: T1, Delta-type opioid receptor; assay: DOR agonists, SAR follow-up, image-based (AID 2370); assay type: functional
[4] = biological target: T2, Kappa-type opioid receptor; assay: SAR analysis of small molecule agonists of the kappa opioid receptor via a luminescent beta-arrestin assay. [Related pubchem assays (depositor defined):AID1777, AID1786, AID1966, AID2133, AID2136, AID2348, AID2352, AID2357, AID2359, AID2370, AID2420, AID2478, AID2491, AID2492, AID2493, AID2497, AID2498, AID2500, AID449737, AID488822, AID488842]; assay type: functional
[5] = biological target: T2, Kappa-type opioid receptor; assay type: functional
Mu-type opioid receptor [6] = biological target: T3, Mu-type opioid receptor (Homo sapiens, UniProt P35372); assay: MOR agonists by imaging, SAR follow-up, image-based (AID 2352); assay type: functional
Mu-type opioid receptor [7] = biological target: T3, Mu-type opioid receptor; assay: MOR antagonists, SAR follow-up, image-based (AID 2420); assay type: functional;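 also: compounds added before stimulation of receptor with agonist DAMGO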
[8] = biological target: T2, Kappa-type opioid receptor; assay: SAR analysis of small molecule agonists of the kappa opioid receptor via a luminescent beta-arrestin assay - Set 3. [Related pubchem assays (depositor defined):AID1777, AID1785, AID1786, AID1966, AID2133, AID2136, AID2284, AID2500]; assay type: functional
[9] = biological target: T1, Delta-type opioid receptor; assay: DOR antagonists, SAR follow-up, image-based (AID 2357); assay type: functional
[10] = biological target: T1, Delta-type opioid receptor; assay: HTS Image-Based Screen for Agonists of the DOR Receptor. [Related pubchem assays (depositor defined):AID1777, AID1786, AID2133]; assay type: functional
[11] = biological target: T2, Kappa-type opioid receptor; assay type: functional; remark: listed apart in the source
Mu-type opioid receptor [12] = biological target: T3, Mu-type opioid receptor; assay: HTS Image-Based Screen for Agonists of the MOR Receptor. [Related pubchem assays (depositor defined):AID1777, AID1785, AID1786, AID2133]; assay type: functional
[13] = biological target: T4, Rac GTPase-activating protein 1 (Homo sapiens, UniProt Q9H0H5); assay: MgcRacGAP GTPase-activating activity inhibitors, confirmation, biochemical, ADP Hunter fluorescence, primary and confirmatory (AID 624330); assay type: functional
T4 sequence (Q9H0H5 whole entry): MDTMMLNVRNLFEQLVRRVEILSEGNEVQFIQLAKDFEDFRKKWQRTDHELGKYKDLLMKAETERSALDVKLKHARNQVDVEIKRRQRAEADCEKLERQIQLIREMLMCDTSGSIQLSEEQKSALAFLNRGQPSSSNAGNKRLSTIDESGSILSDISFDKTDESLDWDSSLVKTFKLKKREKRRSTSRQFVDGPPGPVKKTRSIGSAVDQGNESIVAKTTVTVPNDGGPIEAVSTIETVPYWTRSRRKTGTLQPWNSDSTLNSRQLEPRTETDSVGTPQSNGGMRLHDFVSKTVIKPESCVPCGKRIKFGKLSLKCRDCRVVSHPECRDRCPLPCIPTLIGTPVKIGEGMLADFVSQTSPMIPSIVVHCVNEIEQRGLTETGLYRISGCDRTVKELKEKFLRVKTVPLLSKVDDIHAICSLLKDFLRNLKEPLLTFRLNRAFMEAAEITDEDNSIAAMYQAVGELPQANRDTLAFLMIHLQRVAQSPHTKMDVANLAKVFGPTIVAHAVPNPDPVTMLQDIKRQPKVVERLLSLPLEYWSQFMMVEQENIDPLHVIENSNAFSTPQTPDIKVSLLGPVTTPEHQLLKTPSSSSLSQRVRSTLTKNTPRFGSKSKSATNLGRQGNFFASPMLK

[14] = biological target: T5, Sentrin-specific protease 1 (Homo sapiens, UniProt Q9P0U3); assay: potency of human SENP1 inhibitors, dose response, biochemical, kinetic FRET (AID 651697); assay type: functional; details: read-out: IC50_Mean
T5 sequence (Q9P0U3 whole entry): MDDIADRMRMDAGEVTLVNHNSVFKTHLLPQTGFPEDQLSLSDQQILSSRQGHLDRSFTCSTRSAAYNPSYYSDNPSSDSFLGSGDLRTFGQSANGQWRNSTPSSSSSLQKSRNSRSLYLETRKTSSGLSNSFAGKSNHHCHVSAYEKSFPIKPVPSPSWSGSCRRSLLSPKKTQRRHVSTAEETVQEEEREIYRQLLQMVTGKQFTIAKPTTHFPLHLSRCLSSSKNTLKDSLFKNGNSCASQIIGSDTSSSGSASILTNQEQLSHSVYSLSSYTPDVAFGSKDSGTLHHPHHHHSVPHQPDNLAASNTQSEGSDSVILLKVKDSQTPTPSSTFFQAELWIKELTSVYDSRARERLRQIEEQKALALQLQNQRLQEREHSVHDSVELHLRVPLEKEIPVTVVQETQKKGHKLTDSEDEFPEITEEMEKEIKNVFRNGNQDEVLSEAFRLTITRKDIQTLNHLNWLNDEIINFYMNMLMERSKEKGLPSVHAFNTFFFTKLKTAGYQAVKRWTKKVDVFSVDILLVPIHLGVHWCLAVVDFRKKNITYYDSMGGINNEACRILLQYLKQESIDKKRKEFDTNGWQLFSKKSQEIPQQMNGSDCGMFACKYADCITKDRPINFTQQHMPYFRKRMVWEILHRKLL

[15] = biological target: Lysine-specific demethylase 4C (Homo sapiens, UniProt Q9H3R0); assay: GASC-1 (JMJD2C) histone demethylase inhibitors, dose response, biochemical, DELFIA europium, cherry-picked samples (AID 488835); assay type: functional
[16] = biological target: T5, Sentrin-specific protease 1; assay: Dose response confirmation of small molecule inhibitors of the catalytic domain of the SUMO protease, SENP1 in a FRET assay.; assay type: functional; details: read-out: IC50_Mean
[17] = biological target: Lysine-specific demethylase 4A (Homo sapiens, UniProt O75164); assay: JMJD2A histone demethylase inhibitors, dose response, selectivity assay for GASC-1 inhibitor project, biochemical, DELFIA europium, cherry-picked samples (AID 488840)
[18] = biological target: Dual specificity tyrosine-phosphorylation-regulated kinase 1A (Rattus norvegicus, UniProt Q63470); assay type: biochemical, Homo sapiens
Cytochrome P450 2D6 = Cytochrome P450 2D6 (Homo sapiens, UniProt P10635);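 also: CYP2D6 member of a cytochrome P450 panel assay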
Cytochrome P450 2C9 = Cytochrome P450 2C9 (Homo sapiens, UniProt P11712)
[19] = biological target: Peroxisome proliferator-activated receptor gamma/Nuclear receptor coactivator 1 (Homo sapiens, UniProt P37231); assay type: functional;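 also: agonist potency as compounds enhance coactivator SRC-1 recruitment to PPARgamma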
[20] = biological target: Peroxisome proliferator-activated receptor gamma/Nuclear receptor coactivator 3 (Homo sapiens, UniProt P37231); assay type: functional;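 also: agonist potency for raising coactivator recruitment to the receptor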
Cytochrome P450 3A4 = Cytochrome P450 3A4 (Homo sapiens, UniProt P08684);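 also: CYP3A4 tested as one member of a cytochrome P450 panel screen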
[21] = biological target: Peroxisome proliferator-activated receptor gamma/Nuclear receptor coactivator 2 (Homo sapiens, UniProt P37231); assay type: functional;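 also: agonist potency for raising coactivator recruitment to the receptor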
Hexokinase HKDC1 = biological target: T6, Hexokinase HKDC1 (Homo sapiens, UniProt Q2TB90); assay: HKDC1 hexokinase inhibitors, SAR follow-up, biochemical, set 2 (AID 588355); assay type: functional
T6 sequence (Q2TB90 whole entry): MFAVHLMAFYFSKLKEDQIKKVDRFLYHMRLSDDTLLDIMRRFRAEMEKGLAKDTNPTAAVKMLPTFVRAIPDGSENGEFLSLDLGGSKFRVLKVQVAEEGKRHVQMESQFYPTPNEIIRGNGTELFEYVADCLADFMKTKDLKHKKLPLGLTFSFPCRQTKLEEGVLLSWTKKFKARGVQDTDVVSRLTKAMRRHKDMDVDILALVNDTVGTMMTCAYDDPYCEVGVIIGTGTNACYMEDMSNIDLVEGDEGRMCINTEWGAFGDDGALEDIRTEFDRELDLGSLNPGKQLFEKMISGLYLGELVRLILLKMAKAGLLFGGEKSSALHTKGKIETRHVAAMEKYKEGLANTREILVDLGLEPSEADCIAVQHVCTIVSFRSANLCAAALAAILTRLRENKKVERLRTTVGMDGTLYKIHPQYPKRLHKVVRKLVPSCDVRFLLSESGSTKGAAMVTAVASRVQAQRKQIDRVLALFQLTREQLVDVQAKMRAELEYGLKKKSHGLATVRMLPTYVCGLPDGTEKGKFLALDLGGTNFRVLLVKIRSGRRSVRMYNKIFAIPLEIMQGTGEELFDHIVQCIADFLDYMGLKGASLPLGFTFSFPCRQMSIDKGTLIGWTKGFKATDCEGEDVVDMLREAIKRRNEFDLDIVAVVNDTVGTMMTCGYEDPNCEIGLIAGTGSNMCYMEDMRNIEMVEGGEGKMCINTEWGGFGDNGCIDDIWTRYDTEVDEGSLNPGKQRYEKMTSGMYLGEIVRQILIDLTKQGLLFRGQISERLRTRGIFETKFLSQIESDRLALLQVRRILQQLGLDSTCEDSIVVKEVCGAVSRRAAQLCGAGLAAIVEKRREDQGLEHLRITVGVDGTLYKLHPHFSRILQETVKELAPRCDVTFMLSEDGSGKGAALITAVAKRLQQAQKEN

Hexokinase-1 = biological target: T7, Hexokinase-1 (Homo sapiens, UniProt P19367); assay: HK1 enzyme inhibition by HKDC1 hits, SAR follow-up, selectivity assay for HKDC1 inhibitor project, biochemical, set 2, resazurin fluorescence coupled readout (AID 588356); assay type: functional
T7 sequence (P19367 whole entry): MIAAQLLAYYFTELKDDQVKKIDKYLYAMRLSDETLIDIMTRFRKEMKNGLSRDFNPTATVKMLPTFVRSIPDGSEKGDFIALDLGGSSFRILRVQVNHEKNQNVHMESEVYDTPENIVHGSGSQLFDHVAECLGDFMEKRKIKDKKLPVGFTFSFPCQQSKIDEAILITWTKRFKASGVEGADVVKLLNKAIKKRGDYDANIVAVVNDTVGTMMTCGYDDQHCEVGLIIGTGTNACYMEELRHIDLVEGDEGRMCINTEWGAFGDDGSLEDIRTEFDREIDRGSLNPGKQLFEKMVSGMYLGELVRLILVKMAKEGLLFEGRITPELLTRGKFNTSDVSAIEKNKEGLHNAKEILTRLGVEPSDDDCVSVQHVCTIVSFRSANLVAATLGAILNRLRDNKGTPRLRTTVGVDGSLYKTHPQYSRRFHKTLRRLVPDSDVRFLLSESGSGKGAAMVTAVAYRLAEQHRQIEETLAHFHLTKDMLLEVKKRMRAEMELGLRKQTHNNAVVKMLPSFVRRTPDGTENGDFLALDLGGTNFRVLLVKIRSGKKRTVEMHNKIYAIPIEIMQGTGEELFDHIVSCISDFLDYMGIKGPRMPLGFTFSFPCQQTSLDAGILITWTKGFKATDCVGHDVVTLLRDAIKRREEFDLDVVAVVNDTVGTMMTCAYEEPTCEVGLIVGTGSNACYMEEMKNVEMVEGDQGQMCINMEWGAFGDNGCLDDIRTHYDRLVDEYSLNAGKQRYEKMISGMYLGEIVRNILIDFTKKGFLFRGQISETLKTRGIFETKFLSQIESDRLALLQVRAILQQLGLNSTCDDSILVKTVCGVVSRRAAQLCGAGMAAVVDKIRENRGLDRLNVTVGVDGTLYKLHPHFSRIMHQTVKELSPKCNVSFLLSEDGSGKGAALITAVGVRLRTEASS

T1 sequence (P41143 whole entry): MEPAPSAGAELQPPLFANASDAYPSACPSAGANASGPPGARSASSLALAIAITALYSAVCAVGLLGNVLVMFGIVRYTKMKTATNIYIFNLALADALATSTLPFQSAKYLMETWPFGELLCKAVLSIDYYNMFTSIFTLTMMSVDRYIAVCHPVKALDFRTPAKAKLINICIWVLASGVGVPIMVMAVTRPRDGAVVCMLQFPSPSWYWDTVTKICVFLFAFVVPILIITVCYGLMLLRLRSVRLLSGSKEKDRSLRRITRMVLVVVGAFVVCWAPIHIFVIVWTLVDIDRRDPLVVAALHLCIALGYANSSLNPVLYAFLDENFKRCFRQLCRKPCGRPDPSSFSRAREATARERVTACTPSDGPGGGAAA
T2 sequence (P41145 whole entry): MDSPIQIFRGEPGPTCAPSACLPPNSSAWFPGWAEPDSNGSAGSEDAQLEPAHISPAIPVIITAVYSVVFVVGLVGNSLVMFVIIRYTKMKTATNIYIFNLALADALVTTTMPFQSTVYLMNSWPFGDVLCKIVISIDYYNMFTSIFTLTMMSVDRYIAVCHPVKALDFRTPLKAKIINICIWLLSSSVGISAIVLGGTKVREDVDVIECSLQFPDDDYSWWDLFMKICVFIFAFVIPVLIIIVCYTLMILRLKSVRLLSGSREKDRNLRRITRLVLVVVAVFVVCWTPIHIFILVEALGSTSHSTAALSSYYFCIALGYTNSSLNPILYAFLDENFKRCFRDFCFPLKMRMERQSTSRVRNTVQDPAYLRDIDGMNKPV
T3 sequence (P35372 whole entry): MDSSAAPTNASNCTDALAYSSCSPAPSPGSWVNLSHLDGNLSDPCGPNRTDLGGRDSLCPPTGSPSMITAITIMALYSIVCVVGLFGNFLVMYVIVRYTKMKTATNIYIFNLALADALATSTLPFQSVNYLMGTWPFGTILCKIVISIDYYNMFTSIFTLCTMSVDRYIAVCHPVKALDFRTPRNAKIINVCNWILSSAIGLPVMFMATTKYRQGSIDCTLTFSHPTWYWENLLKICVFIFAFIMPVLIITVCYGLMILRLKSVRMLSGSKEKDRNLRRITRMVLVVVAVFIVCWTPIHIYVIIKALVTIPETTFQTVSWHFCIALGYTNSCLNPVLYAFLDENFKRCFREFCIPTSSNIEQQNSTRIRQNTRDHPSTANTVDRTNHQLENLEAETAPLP
Lysine-specific demethylase 4A, sequence (O75164 whole entry): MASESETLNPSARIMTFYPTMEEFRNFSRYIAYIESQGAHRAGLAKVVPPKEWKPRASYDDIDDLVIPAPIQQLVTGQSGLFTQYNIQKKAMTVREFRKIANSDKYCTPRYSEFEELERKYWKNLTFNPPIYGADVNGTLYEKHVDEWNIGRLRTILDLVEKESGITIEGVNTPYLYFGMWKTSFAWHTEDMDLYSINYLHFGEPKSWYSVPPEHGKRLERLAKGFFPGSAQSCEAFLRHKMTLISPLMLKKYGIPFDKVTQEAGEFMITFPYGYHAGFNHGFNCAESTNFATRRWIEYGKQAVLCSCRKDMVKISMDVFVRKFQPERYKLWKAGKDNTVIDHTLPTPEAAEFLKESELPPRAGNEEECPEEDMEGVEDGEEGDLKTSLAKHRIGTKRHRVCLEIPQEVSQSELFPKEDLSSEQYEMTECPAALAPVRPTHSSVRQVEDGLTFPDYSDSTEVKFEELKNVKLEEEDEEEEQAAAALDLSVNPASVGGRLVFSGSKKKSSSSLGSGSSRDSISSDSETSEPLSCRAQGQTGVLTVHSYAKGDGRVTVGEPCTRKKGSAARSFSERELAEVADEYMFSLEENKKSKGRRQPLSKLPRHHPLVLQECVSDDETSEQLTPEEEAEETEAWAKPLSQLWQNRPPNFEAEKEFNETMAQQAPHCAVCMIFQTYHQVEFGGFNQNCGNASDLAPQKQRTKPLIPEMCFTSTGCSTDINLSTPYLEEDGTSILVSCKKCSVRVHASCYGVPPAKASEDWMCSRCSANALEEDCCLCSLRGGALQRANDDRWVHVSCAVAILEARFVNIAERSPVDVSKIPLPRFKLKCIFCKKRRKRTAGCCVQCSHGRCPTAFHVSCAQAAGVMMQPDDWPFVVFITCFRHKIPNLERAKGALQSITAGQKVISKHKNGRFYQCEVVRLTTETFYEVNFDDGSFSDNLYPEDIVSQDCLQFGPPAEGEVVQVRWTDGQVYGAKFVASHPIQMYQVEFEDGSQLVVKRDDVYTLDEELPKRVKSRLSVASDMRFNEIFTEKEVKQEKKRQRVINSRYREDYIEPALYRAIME
Cytochrome P450 2D6, sequence (P10635 whole entry): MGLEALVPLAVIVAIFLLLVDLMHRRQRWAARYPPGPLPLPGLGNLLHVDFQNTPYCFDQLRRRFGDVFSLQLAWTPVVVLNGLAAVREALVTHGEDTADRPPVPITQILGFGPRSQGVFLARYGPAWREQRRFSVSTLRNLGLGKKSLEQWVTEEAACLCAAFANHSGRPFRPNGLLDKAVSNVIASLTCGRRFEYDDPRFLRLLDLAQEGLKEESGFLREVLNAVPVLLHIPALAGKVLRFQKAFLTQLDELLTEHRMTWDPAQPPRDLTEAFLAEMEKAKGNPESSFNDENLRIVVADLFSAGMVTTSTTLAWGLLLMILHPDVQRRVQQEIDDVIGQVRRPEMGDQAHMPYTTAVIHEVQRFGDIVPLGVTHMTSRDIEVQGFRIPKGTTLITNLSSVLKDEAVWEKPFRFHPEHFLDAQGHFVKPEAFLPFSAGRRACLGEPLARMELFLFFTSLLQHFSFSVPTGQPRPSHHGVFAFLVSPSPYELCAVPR
Peroxisome proliferator-activated receptor gamma/Nuclear receptor coactivator 2, sequence (P37231 whole entry): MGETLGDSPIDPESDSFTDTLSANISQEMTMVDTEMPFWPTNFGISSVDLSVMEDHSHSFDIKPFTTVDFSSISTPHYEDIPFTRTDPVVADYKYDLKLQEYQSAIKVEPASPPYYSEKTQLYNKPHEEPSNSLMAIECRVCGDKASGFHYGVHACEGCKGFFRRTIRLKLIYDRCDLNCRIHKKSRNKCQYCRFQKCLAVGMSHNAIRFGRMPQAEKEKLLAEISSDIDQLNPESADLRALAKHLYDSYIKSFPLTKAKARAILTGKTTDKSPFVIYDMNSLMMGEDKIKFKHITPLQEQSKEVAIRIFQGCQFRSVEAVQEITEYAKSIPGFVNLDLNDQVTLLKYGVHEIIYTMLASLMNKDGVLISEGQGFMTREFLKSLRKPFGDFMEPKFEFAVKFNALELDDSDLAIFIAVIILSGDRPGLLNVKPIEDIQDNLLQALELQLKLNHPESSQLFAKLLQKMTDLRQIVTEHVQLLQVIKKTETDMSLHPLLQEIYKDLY
Peroxisome proliferator-activated receptor gamma/Nuclear receptor coactivator 2, sequence (Q15596 whole entry, further chain): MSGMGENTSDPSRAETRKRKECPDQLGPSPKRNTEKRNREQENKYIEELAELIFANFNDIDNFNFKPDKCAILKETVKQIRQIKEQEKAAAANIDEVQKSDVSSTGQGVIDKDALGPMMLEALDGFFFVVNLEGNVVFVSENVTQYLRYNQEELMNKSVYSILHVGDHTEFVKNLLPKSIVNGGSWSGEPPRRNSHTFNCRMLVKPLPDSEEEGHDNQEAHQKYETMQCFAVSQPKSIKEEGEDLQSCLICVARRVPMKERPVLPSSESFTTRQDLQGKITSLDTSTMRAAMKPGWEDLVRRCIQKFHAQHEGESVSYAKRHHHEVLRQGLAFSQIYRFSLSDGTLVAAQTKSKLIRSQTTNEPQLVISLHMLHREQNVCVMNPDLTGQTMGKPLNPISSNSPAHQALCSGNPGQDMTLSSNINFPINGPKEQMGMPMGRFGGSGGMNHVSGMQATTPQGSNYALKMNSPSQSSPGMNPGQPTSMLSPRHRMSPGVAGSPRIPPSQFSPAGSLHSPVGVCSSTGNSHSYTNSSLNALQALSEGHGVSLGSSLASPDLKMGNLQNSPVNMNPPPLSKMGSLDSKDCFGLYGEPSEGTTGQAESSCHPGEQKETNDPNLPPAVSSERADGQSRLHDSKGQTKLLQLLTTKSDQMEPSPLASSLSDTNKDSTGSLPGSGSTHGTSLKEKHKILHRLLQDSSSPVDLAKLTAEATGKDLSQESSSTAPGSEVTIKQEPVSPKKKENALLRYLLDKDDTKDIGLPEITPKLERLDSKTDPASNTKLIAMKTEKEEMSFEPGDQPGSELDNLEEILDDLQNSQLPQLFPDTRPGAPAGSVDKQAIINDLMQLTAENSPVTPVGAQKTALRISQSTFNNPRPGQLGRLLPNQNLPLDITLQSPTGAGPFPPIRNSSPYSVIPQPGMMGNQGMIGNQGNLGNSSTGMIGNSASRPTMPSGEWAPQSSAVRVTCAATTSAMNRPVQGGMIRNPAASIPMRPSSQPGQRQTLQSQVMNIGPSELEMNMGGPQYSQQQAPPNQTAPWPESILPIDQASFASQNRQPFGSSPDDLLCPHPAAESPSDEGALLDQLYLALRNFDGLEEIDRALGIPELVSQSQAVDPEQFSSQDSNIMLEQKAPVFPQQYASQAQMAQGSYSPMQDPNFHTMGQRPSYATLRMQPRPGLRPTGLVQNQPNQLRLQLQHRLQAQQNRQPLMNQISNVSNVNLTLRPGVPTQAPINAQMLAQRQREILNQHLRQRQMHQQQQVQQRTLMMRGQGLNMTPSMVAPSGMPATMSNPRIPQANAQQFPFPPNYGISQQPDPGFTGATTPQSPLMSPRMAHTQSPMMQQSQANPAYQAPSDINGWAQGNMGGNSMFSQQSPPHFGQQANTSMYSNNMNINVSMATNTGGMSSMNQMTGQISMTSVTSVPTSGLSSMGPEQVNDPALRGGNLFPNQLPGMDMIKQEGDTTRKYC

CCCCN(Cc1cc2cc(C)ccc2[nH]c1=O)C(=O)c1ccccn1
IC50 [1]: > 32 µM (inactive)
IC50 [2]: > 32 µM (inactive)
EC50 [3]: > 32 µM (inactive)
EC50 [4]: 7.69 µM (active)
EC50 [5]: 4.95 µM
EC50 (Mu-type opioid receptor [6]): > 32 µM (inactive)
IC50 (Mu-type opioid receptor [7]): > 32 µM (inactive)
EC50 [8]: 8.38 µM (active)
IC50 [9]: > 32 µM (inactive)
EC50 [10]: > 32 µM (inactive)
EC50 [11]: 4.84 µM
EC50 (Mu-type opioid receptor [12]): > 32 µM (inactive)

C[C@@H]1O[C@@H](OC[C@H]2O[C@@H](Oc3cc(O)c4c(=O)cc(-c5ccc(O)c(O)c5)oc4c3)[C@H](O)[C@@H](O)[C@@H]2O)[C@H](O)[C@H](O)[C@H]1O
IC50 [13]: 42.7 µM (active)
IC50 [14]: 14.7 µM (active)
AC50 [15]: 2.82 µM (active)
IC50 [16]: 6.84 µM (active)
AC50 [17]: 2.86 µM (active)
AC50 [18]: 15.8 µM (active)

c1ccc(CSc2ncnc3c2sc2nc(N4CCOCC4)c4c(c23)CCCC4)cc1
AC50 (Cytochrome P450 2D6): inconclusive
AC50 (Cytochrome P450 2C9): 1.12 µM (inconclusive)
EC50 [19]: > 79.4 µM (not active)
EC50 [20]: > 79.4 µM (not active)
AC50 (Cytochrome P450 3A4): inconclusive
EC50 [21]: 18.6 µM (not active)

CCc1ccc(NC2c3ccccc3C(=O)N2c2ccccc2C)cc1 (stereo unspecified)
IC50 (Hexokinase HKDC1): > 80 µM (inactive)
IC50 (Hexokinase-1): > 80 µM (inactive)
